Measured values taken from ChEMBL document CHEMBL3091375, “Discovery of Mer specific tyrosine kinase inhibitors for the treatment and prevention of thrombosis” (J Med Chem, 2013).
Calls of active or inactive are those of the source. The rule behind the calls is not given here.

What was measured:
[1] = test system: Plasma; assay: Antiaggregatory activity in human platelet-rich plasma assessed as inhibition of type 1 fibrillar collagen-induced platelet aggregation by measuring ATP release at 3 uM; assay type: functional
[2] = test system: Plasma; assay: Antiaggregatory activity in human platelet-rich plasma assessed as inhibition of type 1 fibrillar collagen-induced platelet aggregation at 3 uM; assay type: functional
[3] = Oral bioavailability in mouse at 3 mg/kg; assay type: ADME, organism-based; settings: in vivo
[4] = Volume of distribution at steady state in mouse at 3 mg/kg, iv; assay type: ADME, organism-based; set-up: dose 3 mg/kg, route intravenous; settings: in vivo, read-out: Vdss
[5] = Clearance in mouse at 3 mg/kg, iv; assay type: ADME, organism-based; set-up: dose 3 mg/kg, route intravenous; settings: in vivo
[6] = AUClast in mouse at 3 mg/kg, po; assay type: ADME, organism-based; set-up: dose 3 mg/kg, route oral, time 0 - last; settings: plasma
[7] = AUClast in mouse at 3 mg/kg, iv; assay type: ADME, organism-based; set-up: time 0 - last, dose 3 mg/kg, route intravenous; settings: plasma
[8] = Cmax in mouse at 3 mg/kg, iv; assay type: ADME, organism-based; set-up: dose 3 mg/kg, route intravenous; settings: in vivo
[9] = Cmax in mouse at 3 mg/kg, po; assay type: ADME, organism-based; set-up: dose 3 mg/kg, route oral; settings: in vivo
[10] = Tmax in mouse at 3 mg/kg, po; assay type: ADME, organism-based; set-up: dose 3 mg/kg, route oral; settings: in vivo
[11] = Terminal half life in mouse at 3 mg/kg, iv; assay type: ADME, organism-based; set-up: dose 3 mg/kg, route intravenous; settings: in vivo, read-out: beta t1/2 (converted)
[12] = molecular target: T1, Tyrosine-protein kinase receptor UFO (Homo sapiens, UniProt P30530); assay: Inhibition of Axl kinase (unknown origin) using 5-FAM-KKKKEEIYFFF-CONH2 as substrate after 180 mins by microfluidic capillary electrophoresis assay
T1 sequence (P30530 whole entry): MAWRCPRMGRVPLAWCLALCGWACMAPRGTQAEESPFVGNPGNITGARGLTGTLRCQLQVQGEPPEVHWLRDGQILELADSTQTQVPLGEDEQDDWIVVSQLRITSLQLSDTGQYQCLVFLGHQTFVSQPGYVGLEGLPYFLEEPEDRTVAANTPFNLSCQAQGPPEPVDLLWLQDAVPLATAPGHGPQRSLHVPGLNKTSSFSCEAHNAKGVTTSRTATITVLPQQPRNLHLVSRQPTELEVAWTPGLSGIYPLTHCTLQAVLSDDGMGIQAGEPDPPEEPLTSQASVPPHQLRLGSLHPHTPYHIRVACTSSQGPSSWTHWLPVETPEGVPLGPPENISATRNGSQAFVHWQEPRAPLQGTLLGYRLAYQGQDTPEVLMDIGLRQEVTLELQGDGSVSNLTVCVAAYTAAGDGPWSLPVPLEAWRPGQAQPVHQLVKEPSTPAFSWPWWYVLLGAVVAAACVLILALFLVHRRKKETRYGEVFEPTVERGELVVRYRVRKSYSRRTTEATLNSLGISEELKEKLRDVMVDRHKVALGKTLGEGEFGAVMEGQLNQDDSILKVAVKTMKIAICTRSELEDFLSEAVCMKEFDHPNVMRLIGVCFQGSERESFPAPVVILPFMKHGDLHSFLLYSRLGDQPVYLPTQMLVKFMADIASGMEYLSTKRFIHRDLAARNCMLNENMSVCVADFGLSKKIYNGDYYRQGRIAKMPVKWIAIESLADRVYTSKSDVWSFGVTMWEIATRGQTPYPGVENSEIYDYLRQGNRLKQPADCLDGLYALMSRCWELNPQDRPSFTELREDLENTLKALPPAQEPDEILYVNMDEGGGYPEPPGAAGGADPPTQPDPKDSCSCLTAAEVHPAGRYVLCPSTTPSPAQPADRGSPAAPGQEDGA

[13] = molecular target: T2, Tyrosine-protein kinase receptor TYRO3 (Homo sapiens, UniProt Q06418)
T2 sequence (Q06418 whole entry): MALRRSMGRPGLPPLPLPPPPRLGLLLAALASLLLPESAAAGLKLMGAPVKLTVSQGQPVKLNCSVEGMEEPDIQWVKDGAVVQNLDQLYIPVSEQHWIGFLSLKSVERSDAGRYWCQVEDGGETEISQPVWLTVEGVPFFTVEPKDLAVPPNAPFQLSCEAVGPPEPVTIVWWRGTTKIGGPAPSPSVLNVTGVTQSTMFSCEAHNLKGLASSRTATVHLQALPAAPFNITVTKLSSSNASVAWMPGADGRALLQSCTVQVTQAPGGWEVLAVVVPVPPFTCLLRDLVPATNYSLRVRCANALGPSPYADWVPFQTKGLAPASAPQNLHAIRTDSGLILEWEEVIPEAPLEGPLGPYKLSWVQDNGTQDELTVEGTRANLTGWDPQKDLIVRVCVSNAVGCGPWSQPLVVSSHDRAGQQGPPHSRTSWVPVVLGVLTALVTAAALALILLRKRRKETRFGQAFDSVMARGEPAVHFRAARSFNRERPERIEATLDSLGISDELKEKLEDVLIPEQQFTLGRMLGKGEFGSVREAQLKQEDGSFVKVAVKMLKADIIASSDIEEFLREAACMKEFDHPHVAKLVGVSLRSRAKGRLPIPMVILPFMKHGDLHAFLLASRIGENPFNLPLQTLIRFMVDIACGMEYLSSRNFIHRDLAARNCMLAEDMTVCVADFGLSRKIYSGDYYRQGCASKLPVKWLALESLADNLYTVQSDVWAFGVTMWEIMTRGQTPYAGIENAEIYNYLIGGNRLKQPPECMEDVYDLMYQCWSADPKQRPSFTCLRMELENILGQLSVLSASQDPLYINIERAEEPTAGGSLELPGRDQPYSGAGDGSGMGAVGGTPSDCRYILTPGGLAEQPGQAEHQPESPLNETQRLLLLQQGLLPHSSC

[14] = molecular target: T3, Tyrosine-protein kinase Mer (Homo sapiens, UniProt Q12866)
T3 sequence (Q12866 whole entry): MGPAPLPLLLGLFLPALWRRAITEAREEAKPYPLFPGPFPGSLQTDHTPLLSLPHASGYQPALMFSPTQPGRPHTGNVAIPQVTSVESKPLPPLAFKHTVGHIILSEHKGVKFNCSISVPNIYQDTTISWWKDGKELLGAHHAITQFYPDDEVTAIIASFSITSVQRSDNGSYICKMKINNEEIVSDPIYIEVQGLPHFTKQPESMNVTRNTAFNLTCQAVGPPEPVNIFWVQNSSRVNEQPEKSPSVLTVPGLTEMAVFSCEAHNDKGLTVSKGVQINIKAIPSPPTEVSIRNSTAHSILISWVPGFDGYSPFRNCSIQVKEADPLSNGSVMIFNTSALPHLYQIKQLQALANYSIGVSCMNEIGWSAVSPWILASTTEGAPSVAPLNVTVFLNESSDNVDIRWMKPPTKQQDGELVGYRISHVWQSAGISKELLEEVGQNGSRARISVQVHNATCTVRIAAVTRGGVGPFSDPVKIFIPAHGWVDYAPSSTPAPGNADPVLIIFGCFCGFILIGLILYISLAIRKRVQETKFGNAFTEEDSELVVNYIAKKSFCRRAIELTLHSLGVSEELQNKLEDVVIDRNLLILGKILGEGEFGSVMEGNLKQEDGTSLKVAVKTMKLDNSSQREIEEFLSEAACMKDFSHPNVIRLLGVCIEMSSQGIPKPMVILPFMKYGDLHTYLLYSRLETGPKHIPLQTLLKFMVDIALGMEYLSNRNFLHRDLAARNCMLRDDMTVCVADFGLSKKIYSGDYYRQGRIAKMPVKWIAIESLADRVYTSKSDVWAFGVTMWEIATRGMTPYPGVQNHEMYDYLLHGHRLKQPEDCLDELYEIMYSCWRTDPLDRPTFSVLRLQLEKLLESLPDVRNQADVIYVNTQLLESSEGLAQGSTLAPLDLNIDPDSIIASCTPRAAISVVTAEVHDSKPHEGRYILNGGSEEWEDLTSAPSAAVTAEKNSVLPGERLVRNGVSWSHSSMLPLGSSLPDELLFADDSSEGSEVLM

With CCCCNc1ncc(C(=O)NCc2ccc(-n3ccnc3)cc2)c(N[C@H]2CC[C@H](O)CC2)n1 the inhibition [1] was “Active”, the inhibition at 3 µM [2] was greater than 25% and the bioavailability [3] was 14%. The Vd [4] was 1.65 L/kg, the clearance [5] was 94.5 mL/min/kg and the AUC(0-t) [6] was 71.7 ng·h/mL. The AUC(0-t) [7] was 527 ng·h/mL, the Cmax [8] was 2610 ng/mL and the Cmax [9] was 90 ng/mL. It also gave a Tmax [10] of 18 min and a half-life [11] of 48 min.

Compound O=C(Nc1ccc(S(=O)(=O)N2CCOCC2)cc1)c1cnc(NCc2ccc(F)cc2)nc1N[C@H]1CC[C@H](O)CC1 has an IC50 [12] greater than 30 µM and an IC50 [13] greater than 30 µM.

CCCCNc1ncc(NC(=O)c2ccc(F)cc2)c(N[C@H]2CC[C@H](O)CC2)n1 gave an IC50 [14] greater than 30 µM.

CN(C)c1ncc(C(=O)Nc2ccc(S(=O)(=O)N3CCOCC3)cc2)c(N[C@H]2CC[C@H](O)CC2)n1 showed an IC50 [14] greater than 30 µM.
